Columns and labels:
IL-2 secretion = assay: IL-2 ELISA of cell culture supernatant after T cell activation; type: cell-based, human
Protocol: IL-2 release into cell culture supernatant was detected by a human IL-2 ELISA development kit (PeproTech, Rocky Hill, N.J.) according to the manufacture's instruction. Briefly, each well of a plate was coated with 100 μl of capture antibody (1 μg/ml) and incubated overnight at room temperature, then washed and blocked with 300 μl of blocking solution for one hour at room temperature. Samples in plates were incubated for 1 hour at 37° C., then washed and incubated with 100 μl of detection antibody (0.5 μg/ml) for 1 hour at 37° C. Plates were washed and incubated with 100 μl of the avidin-peroxidase conjugate (1:2000 dilution) for 30 minutes at room temperature followed by washing and incubation with 100 μl of Tetramethylbenzidine (TMB) substrate buffer. Plates were kinetically read using ELx808 automatic microplate reader (Bio-Tek Instruments, Inc. Winooski, Vt.) at 630 nm.

T cells = assay: Cell cycle analysis of T cells; type: cell-based, human
F-actin = assay: Competitive binding of phalloidin to F-actin; settings: 120 nM
HIV-1 [1] = assay: PCR amplification of intracellular viral late DNA (viral entry); type: cell-based, HIV-1NL4-3; settings: 120 nM
Protocol: To remove plasmid DNA contamination, viral stock was treated with Benzonase (Novagen, Madison, WI) (250 U/ml) at […] for 15 min before infection. Total cellular DNA were purified using SV total RNA isolation kit as recommended by the manufacture (Promega, Madison, WI). For detection of viral late reverse transcription products by PCR, forward primer HIV/Tat-Rev-5’(5′[…] 3′; SEQ ID NO: 6) and reverse primer LTR-gag2 (5′[…] 3′; SEQ ID NO: 7) were used. PCR was carried out in 1× Ambion PCR buffer, 125 μM dNTP, 50 pmol each primer, 1U SuperTaq Plus (Ambion Inc. Austin, TX) with 30 cycles at 94° C. for 20 seconds, 68° C. for 60 seconds. For relative quantification, the cellular-actin pseudogene were co-amplified using QuantumRNA-actin Internal Standards (Ambion Inc. Austin, TX), with a ratio from 5/5 to 1/9 for actin primer/competitor.
Thus, the effect of Jas on T cell activity was determined. FIG. 3A illustrates inhibition of HIV-1 latent infection by Jas. Effects of Jas on LFA-1 activation also were tested. Jas treated or untreated resting T cells were activated by anti-CD3/CD28 bead and stained with human ICAM-1/Fc chimera and analyzed by flow cytometer. The effects of Jas on IL-2 secretion also were measured. […] Cells were treated with Jas for 2 hours, washed, infected with HIV-1 for 5 days, then activated by anti-CD3/CD28 bead. […]

HIV-1 [2] = assay: HIV-1 infection of T cells pre-activated with PHA plus IL-2; type: cell-based, HIV-1NL4-3; settings: similar Jas treatment (120 nM)
Protocol: (§1) Thus, the effect of Jas on T cell activity was determined. FIG. 3A illustrates inhibition of HIV-1 latent infection by Jas. Effects of Jas on LFA-1 activation also were tested. Jas treated or untreated resting T cells were activated by anti-CD3/CD28 bead and stained with human ICAM-1/Fc chimera and analyzed by flow cytometer. The effects of Jas on IL-2 secretion also were measured. […] Cells were treated with Jas for 2 hours, washed, infected with HIV-1 for 5 days, then activated by anti-CD3/CD28 bead. […] Following infection, cellular DNA was PCR amplified for viral late DNA and β-actin pseudogene. Cells were pre-activated with PHA plus IL-2, then treated and infected as in FIG. 3A. […] CEM-SS cell were treated and infected as in FIG. 3A. Effects of Jas on HIV-1 infection of resting T cells pre-stimulated with anti-CD4/CXCR4 bead (2 beads/cell) are shown in FIG. 3E. Pre-stimulated cells were treated and infected as in FIG. 3A.

HIV-1 [3] = assay: HIV-1 infection of transformed CEM-SS cells; type: cell-based, HIV-1NL4-3
Protocol: as §1

HIV-1 [4] = assay: HIV-1 latent infection of resting CD4 T cells, viral replication assay (p24 ELISA) after anti-CD3/CD28 activation; type: cell-based, HIV-1NL4-3; settings: for inhibition of HIV replication in resting T cells: 2 hours before infection
Protocol: Virus stocks of the HIV-1NL4-3 (Adachi et al. J Virol 59(2), 284-91 (1986)) were prepared by transfection of HeLa cells with cloned proviral DNA as described in Wu and Marsh (2001). Supernatant was harvested at 48 hours, and filtered through a 0.45 μm nitrocellulose membrane. Virus titer (TCID50) was measured by infection of a Rev-CEM indicator cell line which was constructed through stable integration of a Rev-dependent GFP expression lentiviral vector into CEM-SS. […] For infection of resting CD4 T cells, viruses were first titrated to determine minimal levels detectable by p24 ELISA in replication assays described below. Unless specified, for most replication assays, 10^3.5 to 10^4.5 TCID50 units of HIV-1 were used to infect 10^6 cells. For infection procedure, CD4 T cells were incubated with the virus for 2 hours, then washed twice with medium to remove unbound virus. Infected cells were resuspended into fresh RPMI 1604 medium supplemented with 10% heat-inactivated fetal bovine serum, penicillin (50 U/ml) and streptomycin (50 μg/ml) at a density of 10^6 per ml and incubated for 5 days without stimulation. Cells were activated at day 5 with anti-CD3/CD28 magnetic beads at 4 beads per cells. For viral replication assay, 10% of infected cells were taken at 1, 3, 5, 6, 7, 8, 9 days post infection. Cells were pelleted and the supernatant was saved for p24 ELISA. Levels of p24 in the supernatant were measured by using Coulter HIV-1 p24 Assay Kit (Beckman Coulter, Inc. Miami, Fla.). Plates were kinetically read using ELx808 automatic microplate reader (Bio-Tek Instruments, Inc. Winooski, Vt.) at 630 nm.
Resting CD4 T cells were treated with pertussis toxin (Sigma, St. Louis, Mo.) at a final concentration of 100 ng/ml for 2 hours, then infected with HIV-1. Following infection, cells were washed 2 to 3 times to remove cell-free virus and the inhibitor. Cells were treated with Jasplakinolide (Molecular Probes, Eugene, Oreg.) for 1 to 2 hours or Latrunculin A (Biomol, Plymouth Meeting, Pa.) for 5 minutes at various concentrations, washed twice with medium, then infected with HIV-1. Following infection, cells were washed twice to remove cell free virus. Cells were treated with 200 nM of Staurosporine (Biomol, Plymouth Meeting, Pa.) for 2 hours, then infected with HIV-1. Following infection, cells were washed twice to remove cell-free virus and the inhibitor.
Resting CD4 T cells were treated with S3 or Q104 for I to 2 hours, then infected with HIV-1. Following infection, cells were washed 2 to 3 times to remove cell-free virus and the peptides.
Effects of Jas on LFA-1 activation also were tested. Jas treated or untreated resting T cells were activated by anti-CD3/CD28 bead and stained with human ICAM-1/Fc chimera and analyzed by flow cytometer. The effects of Jas on IL-2 secretion also were measured. […] Cells were treated with Jas for 2 hours, washed, infected with HIV-1 for 5 days, then activated by anti-CD3/CD28 bead. […] Following infection, cellular DNA was PCR amplified for viral late DNA and β-actin pseudogene. Cells were pre-activated with PHA plus IL-2, then treated and infected as in FIG. 3A. […] CEM-SS cell were treated and infected as in FIG. 3A.

C/C1=C\[C@H](C)C[C@H](C)OC(=O)C[C@H](c2ccc(O)cc2)NC(=O)[C@@H](Cc2c(Br)[nH]c3ccccc23)N(C)C(=O)[C@H](C)NC(=O)[C@@H](C)C1 [Jas, Jasplakinolide]
effect on IL-2 secretion (IL-2 secretion; 120 nM and below): no significant effect
effect on IL-2 expression following T cell activation (IL-2 secretion; 600 nM and above): inhibited IL-2 expression
cell cycle arrest (T cells; 120 nM): no cell cycle arrest
cell cycle arrest (T cells; 3μM): arrested cells in S phase
inhibition of subsequent competitive binding of phalloidin to F-actin (F-actin): significantly inhibited
intracellular viral DNA, treated vs untreated cells (HIV-1 [1]): did not detect any difference
inhibition of HIV replication in pre-activated T cells (HIV-1 [2]): no inhibition
inhibition of HIV replication in GEM-SS (HIV-1 [3]; 3μM): did inhibit HIV replication
inhibition of HIV replication in transformed CEM-SS (HIV-1 [3]; similar Jas treatment (120 nM)): no inhibition
inhibition of HIV replication in resting T cells (HIV-1 [4]; 24 nM): partial inhibition
inhibition of HIV replication in resting T cells (HIV-1 [4]; 120 nM): Complete inhibition
inhibition of HIV replication in resting T cells pre-stimulated with CD4/CXCR4 bead (HIV-1 [4]; 120 nM, pre-stimulation 2 beads/cell): completely abolished the inhibition
inhibition of HIV replication in resting T cells (HIV-1 [4]; 600 nM): Complete inhibition

Source: patent publication US7662547B2, “Compositions and methods for detecting and treating HIV infections” (priority 2006, dated 2010)
